The results in this text go back to US20100105723A1, “5-PHENYL-6-PYRIDIN-4-YL-1,3-DIHYDRO-2H-IMIDAZO[4,5-b]PYRIDIN-2-ONE DERIVATIVES USEFUL AS A2B ADENOSINE RECEPTOR ANTAGONISTS” (priority 2006, published 2010).

pKi: −log10 of the molar value. Some results are limits rather than exact numbers.

One may read the pKi as −log10 of the Ki, conventionally taken in molar units.

In assay [1] the target is T1, human A2B receptor (Homo sapiens, UniProt P29275).
T1 construct: host or cells: HEK293
T1 sequence (P29275 1-332): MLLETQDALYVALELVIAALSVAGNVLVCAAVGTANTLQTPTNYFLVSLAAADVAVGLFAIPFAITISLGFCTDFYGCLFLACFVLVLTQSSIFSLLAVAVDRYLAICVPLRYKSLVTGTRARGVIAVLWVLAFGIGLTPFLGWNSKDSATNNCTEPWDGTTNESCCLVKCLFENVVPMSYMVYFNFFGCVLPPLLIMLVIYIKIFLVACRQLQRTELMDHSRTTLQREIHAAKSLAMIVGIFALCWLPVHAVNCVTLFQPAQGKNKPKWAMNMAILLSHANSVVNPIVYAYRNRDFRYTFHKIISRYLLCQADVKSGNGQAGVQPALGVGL
The assay can be described thus: A2B radioligand filtration binding assay ([3H]-DPCPX competition). The settings on record: membranes from HEK293 cells expressing human A2B receptor; mean of at least two independent determinations; read-out: Ki hA2B. As to the method: For A2B, competition assays were carried out in filtration binding assay, incubating in polypropylene 96 well-plates (n^o 267245, NUNC) containing 2 μL of either 1% DMSO solution, test compound or 100 μM 5′NECA (SIGMA E-2387) for non-specific binding, 100 μg of A2B-membranes prepared from HEK293 cells stably expressing the human A2B receptor (Euroscreen ES-013-C) and 35 nM [^3H]-DPCPX (TRK1064, 128 Ci/mmol, Amersham), in a total volume of 200 μl of buffer A+2 Ul/ml adenosine deaminase, for 60 minutes at room temperature.

In assay [2] the target is T2, human A2A receptor (Homo sapiens, UniProt P29274).
T2 construct: expressed in transfected cells; host or cells: HeLa
The assay can be described thus: A2A radioligand SPA binding assay (3H-ZM241385). As to conditions: for pKi: membranes from HeLa cells transfected with human A2A receptor, mean of at least two independent determinations, read-out: Ki hA2A. As to the method: For A2A receptors binding technology was SPA (Amhersham) with 3,3 nM ^3H-ZM241385, […] unlabelled NECA, membranes from HeLa cells transfected with human A2A receptor, incubated 1 h. at room temperature with 1 mg YSi-WGA beads in TrisHCl 50 mM pH 7.4, EDTA 1 mM, MgCl2 10 mM, 2 U/ml adenosin deaminase.

Assay [3] has as its target T3, human A1 receptor (Homo sapiens, UniProt P30542).
T3 construct: host or cells: CHO
T3 sequence (P30542 1-326): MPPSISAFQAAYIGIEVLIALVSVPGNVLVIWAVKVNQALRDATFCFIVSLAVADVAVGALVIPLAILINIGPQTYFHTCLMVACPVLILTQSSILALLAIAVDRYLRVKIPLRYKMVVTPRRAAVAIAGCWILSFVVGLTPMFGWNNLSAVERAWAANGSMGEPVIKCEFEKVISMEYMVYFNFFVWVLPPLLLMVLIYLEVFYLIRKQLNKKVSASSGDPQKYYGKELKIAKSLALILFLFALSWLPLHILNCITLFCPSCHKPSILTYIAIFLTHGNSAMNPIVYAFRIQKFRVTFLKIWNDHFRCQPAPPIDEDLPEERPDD
As to the kind of experiment: A1 radioligand filtration binding assay (3H-DPCPX). The settings on record: membranes from CHO cells transfected with human A1 receptor; mean of at least two independent determinations; read-out: Ki hA1. The procedure: For A1 receptors a filtration binding assay was performed with 2 nM ^3H-DPCPX, […] unlabelled R-PIA, membranes from CHO cells transfected with human A1 receptor (Euroscreen ES-010-C) and incubated 90 min. at room temperature in Hepes 20 mM pH 7.4, NaCl 100 mM, MgCl2 10 mM and 2 U/ml adenosin deaminase.

Assay [4] has as its target T4, human A3 receptor (Homo sapiens, UniProt P0DMS8).
T4 construct: expressed in transfected cells; host or cells: HeLa
T4 sequence (P0DMS8 1-318): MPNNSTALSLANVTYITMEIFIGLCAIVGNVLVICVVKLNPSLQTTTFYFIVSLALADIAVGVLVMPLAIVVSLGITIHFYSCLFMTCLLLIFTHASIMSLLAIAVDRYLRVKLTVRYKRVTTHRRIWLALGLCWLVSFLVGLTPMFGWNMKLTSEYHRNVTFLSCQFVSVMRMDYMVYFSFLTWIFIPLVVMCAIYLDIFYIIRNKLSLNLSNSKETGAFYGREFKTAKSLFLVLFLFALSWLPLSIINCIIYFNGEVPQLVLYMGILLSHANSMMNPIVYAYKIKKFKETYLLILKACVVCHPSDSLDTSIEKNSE
As to the kind of experiment: A3 radioligand filtration binding assay (3H-NECA). The settings on record: for inhibition at 1 µM: at indicated concentration (1000 nM), read-out: % inhibition of radioligand binding at indicated concentration, hA3; for pKi: membranes from HeLa cells transfected with human A3 receptor, read-out: Ki hA3. The procedure: For A3 receptors, in filtration binding assay, 30 nM ^3H-NECA, […] unlabelled R-PIA, […] membranes from HeLa cells transfected with human A3 receptor, incubated 3 h. at room temperature in TrisHCl 50 mM pH 7.4, EDTA 1 mM, MgCl2 5 mM, 2 U/ml adenosin deaminase.

T2 sequence (P29274 whole entry): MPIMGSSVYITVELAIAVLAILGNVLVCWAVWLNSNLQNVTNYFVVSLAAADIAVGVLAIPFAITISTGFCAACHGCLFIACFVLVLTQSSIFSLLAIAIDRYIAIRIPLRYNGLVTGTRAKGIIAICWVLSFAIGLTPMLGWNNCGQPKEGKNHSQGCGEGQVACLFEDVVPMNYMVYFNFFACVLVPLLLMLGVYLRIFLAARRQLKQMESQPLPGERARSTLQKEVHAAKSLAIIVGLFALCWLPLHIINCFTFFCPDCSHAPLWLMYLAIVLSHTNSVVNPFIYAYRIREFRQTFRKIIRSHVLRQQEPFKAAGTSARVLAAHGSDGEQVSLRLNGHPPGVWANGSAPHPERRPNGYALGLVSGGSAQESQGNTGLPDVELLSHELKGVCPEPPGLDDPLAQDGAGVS

`O=c1[nH]c2cc(-c3c(F)cncc3F)c(-c3ccccc3F)nc2[nH]1` [Example 3, 6-(3,5-Difluoropyridin-4-yl)-5-(2-fluorophenyl)-1,3-dihydro-2H-imidazo[4,5-b]pyridin-2-one]: the pKi in assay [1] is 8.96; in assay [2], < 5.60; in assay [3] it was 6.20; in assay [4], < 6.00. Further, in assay [2] (at indicated concentration (2500 nM), read-out: % inhibition of radioligand binding at indicated concentration, hA2A), the inhibition at 2.5 µM worked out at 6%. Further, the inhibition at 1 µM in assay [4] came to 18%.
Take `O=c1[nH]c2cc(-c3ccncc3F)c(-c3ccccc3F)nc2[nH]1` [Example 1, 5-(2-Fluorophenyl)-6-(3-fluoropyridin-4-yl)-1,3-dihydro-2H-imidazo[4,5-b]pyridin-2-one]: the pKi in assay [1] was 9.05; in assay [2] it was 6.14; in assay [3], 7.46; in assay [4] it was < 6.00. Further, the inhibition at 1 µM in assay [4] is 19%.
The like results for `O=c1[nH]c2cc(-c3ccncc3Cl)c(-c3ccccc3F)nc2[nH]1` [Example 2, 6-(3-Chloropyridin-4-yl)-5-(2-fluorophenyl)-1,3-dihydro-2H-imidazo[4,5-b]pyridin-2-one] were, in that order, 8.74, 6.35, 7.12, < 6.00 and 22%.
